Data reported in publication PMC10311525, “Restricting Promiscuity of Plant Flavonoid 3′-Hydroxylase and 4′-O-Methyltransferase Improves the Biosynthesis of (2S)-Hesperetin in E. coli” (Journal of Agricultural and Food Chemistry, 2023).

Columns and labels:
Experiment in all cases: whole-cell conversion, HPLC
Assay type in all cases: cell-based
MpOMT [1] = biological target: T1, MpOMT (Mentha x piperita, UniProt Q6VMV8, S142A); details: 100 mg/L fed, 12 h, 23 °C; product (2S)-hesperetin
T1 construct: gene OMT4
T1 sequence (Q6VMV8 whole entry S142A): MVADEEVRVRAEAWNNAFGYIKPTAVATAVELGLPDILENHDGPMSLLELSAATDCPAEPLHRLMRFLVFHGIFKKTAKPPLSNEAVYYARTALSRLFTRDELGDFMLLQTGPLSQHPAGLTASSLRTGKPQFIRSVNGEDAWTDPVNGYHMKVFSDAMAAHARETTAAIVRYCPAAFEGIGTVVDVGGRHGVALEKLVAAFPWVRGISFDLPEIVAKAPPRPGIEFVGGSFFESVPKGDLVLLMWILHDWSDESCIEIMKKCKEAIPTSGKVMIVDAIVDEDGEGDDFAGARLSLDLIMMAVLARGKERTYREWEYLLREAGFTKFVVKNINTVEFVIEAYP

MpOMT [2] = biological target: T2, MpOMT (Mentha x piperita, UniProt Q6VMV8, F133A); details: 100 mg/L fed, 12 h, 23 °C; product (2S)-hesperetin
T2 construct: gene OMT4
T2 sequence (Q6VMV8 whole entry F133A): as the sequence (Q6VMV8 whole entry S142A) above, with F133A, A142S counted along it

trThF3′H with CPR = biological target: T3, trThF3′H with CPR (Tricyrtis hirta, UniProt B9A9Y6); details: 100 mg/L fed, 12 h, 23 °C; product (2S)-eriodictyol; full-length CPR co-expressed
T3 construct: gene F3'H; 24-aa N-terminally truncated F3'H co-expressed with full-length Arabidopsis thaliana CPR from pETDuet-1 (pGH10) in E. coli BL21(DE3); whole-cell conversion; with NADPH--cytochrome P450 reductase 2 (Arabidopsis thaliana)
T3 sequence (B9A9Y6 25-505): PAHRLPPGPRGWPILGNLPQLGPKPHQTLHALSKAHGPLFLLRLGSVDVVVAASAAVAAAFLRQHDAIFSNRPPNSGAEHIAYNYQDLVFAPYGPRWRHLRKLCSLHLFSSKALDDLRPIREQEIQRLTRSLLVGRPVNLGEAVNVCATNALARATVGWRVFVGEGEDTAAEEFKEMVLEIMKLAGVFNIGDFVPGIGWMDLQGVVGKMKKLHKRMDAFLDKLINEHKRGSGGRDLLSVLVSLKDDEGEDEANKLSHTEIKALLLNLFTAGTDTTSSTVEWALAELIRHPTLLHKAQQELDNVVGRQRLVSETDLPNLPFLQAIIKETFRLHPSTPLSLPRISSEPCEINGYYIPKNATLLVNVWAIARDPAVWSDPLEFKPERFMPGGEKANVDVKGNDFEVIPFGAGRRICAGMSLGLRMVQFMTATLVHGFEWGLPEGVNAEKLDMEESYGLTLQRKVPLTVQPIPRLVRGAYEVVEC
T3 sequence (Q9SUM3 whole entry partner, the tested form may be a part): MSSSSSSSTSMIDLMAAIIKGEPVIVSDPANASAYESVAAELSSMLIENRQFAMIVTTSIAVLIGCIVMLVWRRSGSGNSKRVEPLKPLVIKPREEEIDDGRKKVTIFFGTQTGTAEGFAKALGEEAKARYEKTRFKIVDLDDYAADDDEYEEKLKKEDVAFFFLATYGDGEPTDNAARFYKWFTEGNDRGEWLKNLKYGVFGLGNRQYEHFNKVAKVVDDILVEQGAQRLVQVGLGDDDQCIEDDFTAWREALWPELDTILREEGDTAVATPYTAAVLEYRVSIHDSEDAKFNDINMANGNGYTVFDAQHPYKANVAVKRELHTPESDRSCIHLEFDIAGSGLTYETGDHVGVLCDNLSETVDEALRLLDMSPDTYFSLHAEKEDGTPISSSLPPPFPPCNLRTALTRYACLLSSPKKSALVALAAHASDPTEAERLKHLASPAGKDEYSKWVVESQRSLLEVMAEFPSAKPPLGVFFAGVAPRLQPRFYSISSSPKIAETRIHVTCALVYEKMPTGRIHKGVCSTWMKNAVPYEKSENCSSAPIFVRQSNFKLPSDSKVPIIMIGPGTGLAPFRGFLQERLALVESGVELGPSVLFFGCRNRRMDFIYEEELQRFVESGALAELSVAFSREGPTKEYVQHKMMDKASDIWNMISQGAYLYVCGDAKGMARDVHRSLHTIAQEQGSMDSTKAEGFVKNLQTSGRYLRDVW

Compound | whole-cell conversion, HPLC (MpOMT [1]) | whole-cell conversion, HPLC (MpOMT [2]) | whole-cell conversion, HPLC (trThF3′H with CPR)
O=C1C[C@@H](c2ccc(O)c(O)c2)Oc2cc(O)cc(O)c21 [(2S)-eriodictyol] | three mutants (F115A, F133A, and S142A), which displayed significantly higher conversion rates | three mutants (F115A, F133A, and S142A), which displayed significantly higher conversion rates | 
O=C1C[C@@H](c2ccc(O)cc2)Oc2cc(O)cc(O)c21 [(2S)-naringenin] |  |  | the one harboring trThF3′H and CPR exhibited the highest (2S)-eriodictyol production
